# Measured values taken from publication PMC8751750, “Effect of using different co-ligands during ^99mTc-labeling of J18 peptide on SK-MES-1 cell binding and tumor targeting” (Iranian Journal of Basic Medical Sciences, 2021).
# Entries after “also recorded” stand apart in the source; their conditions may differ. Peptide text beside a SMILES is read from it.
# How the values were obtained:
# [1] = system: SK-MES-1, A-549, SKOV-3 and MCF-7 cells; test: In vitro receptor binding of radiolabeled peptides on four cell lines; design: species or system human; settings: 2 hr at 37 °C
# Protocol: (§1) The in vitro receptor binding of the^ 99mTc-labeled peptide was evaluated using SK-MES-1 a human lung squamous cell carcinoma, SKOV-3 human ovarian carcinoma, and A-549 human lung adenocarcinoma epithelial and MCF-7 human breast cancer cell lines. All cell lines were kept at 37 °C in a 5% CO2 incubator and were maintained in Dulbecco’s DMEM-high glucose supplemented with 10% FBS. Cells were plated in 24-well plates at a density of 4×10^5 cells/well in 1 ml of complete medium and incubated for 24 hr to allow in cells to settle. Following a wash with cold serum-free media or PBS, 40 nM radiolabeled peptides in the full medium were given to the cells, which were then incubated at 37 °C for 2 hr. Finally, cells in culture plates were trypsinized and released, and radioactivity in the cells was measured. To determine specific versus nonspecific binding, SK-MES-1 cells were seeded into 12-well plates at a density of 5×10^5 cells/well and incubated with unlabeled peptides at a concentration 500-fold higher than the labeled peptide for 20 min at 37 °C, followed by the addition of the radiolabeled peptide to the wells. These cells were incubated for 2 hr at 37 °C in a humidified incubator.
# [2] = system: SK-MES-1 cells; test: Specific binding (blocking with unlabeled peptide) on SK-MES-1 cells; design: species or system human
# Protocol: as §1
# [3] = system: SK-MES-1 cells; test: Saturation binding assay on SK-MES-1 cells; design: species or system human
# Protocol: The affinities of (^99mTc) Tc-HYNIC-peptides were determined utilizing a saturation binding experiment with cultivated cells in vitro for determination of the dissociation constant as KD and the number of binding sites per cell (Bmax). SK-MES-1 cells were incubated for 2 hr at 37 °C with increasing concentrations of (^99mTc) Tc- HYNIC- peptides (0.1, 0.5, 1, 2.5, 5, 25, and 50 nM). One dish served as a blocking sample, and it was immersed in a blocking solution containing a 500-fold excess of the non-labeled peptide. For each concentration, three dishes were utilized. Following incubation, the media was withdrawn, and the cells were trypsinized and collected for Gamma counter activity measurement. Prism 5 software (Ver. 5.0) was used to examine the particular binding data using nonlinear regression.
# [4] = Biodistribution in normal mice; format: in vivo; settings: i.v. 1 μg in 100 μl (18.5 MBq), mean±SD, n=4; for Intestine uptake (with contents): normal female NMRI mice
# Protocol: All animal investigations were approved by Mazandaran University of Medical Sciences Research and Ethical Committee in Sari, Iran. Twelve normal female NMRI mice (20–30 g) were randomly divided into three groups of four. 1 μg of (^99mTc) Tc –HYNIC–J18 peptide in 100 μl of buffer (18.5 MBq) was injected into the tail vein. All animals were sacrificed one, four, and twenty-four hours following radiolabeled peptide injection. Mice were euthanized with an appropriate dose of ketamine/xylazine (Sigma, USA) diluted with sterile water (1:3 v/v). Following deep anesthesia, blood was extracted by heart puncture with a 1-mL syringe washed with diluted heparin. Blood, liver, spleen, salivary gland, stomach, kidney, muscle, and bone samples were dissected and weighed, and radioactivity was measured. Except for the intestines, which were computed as a percentage of the injected dose per gram tissue (percent ID/g), the tissue uptake data was calculated as a percentage of the administered dose per total sample.
# [5] = system: A-549 cells; settings: previously reported, listed as 99mTc-HYNIC-(Ser)3-J18 (Tricine); cited from earlier work
# From the text: Table 1 Overview of affinity binding ^99mTc-HYNIC-(Ser)3-J18 on SK-MES-1 vs A-549 cell line | column: A-549 / Tricine; A-549 / tricine/EDDA
smiles,measurement,setting,value
"CC(C)C[C@H](NC(=O)[C@H](CO)NC(=O)[C@H](CCCNC(=N)N)NC(=O)[C@H](CO)NC(=O)[C@H](CO)NC(=O)[C@H](CO)NC(=O)c1ccc(NN)nc1)C(=O)N[C@@H](Cc1c[nH]c2ccccc12)C(=O)N[C@@H](CO)C(=O)N[C@@H](CC(=O)O)C(=O)N[C@@H](Cc1ccccc1)C(=O)N[C@@H](Cc1ccc(O)cc1)C(=O)N[C@@H](C)C(=O)N[C@@H](CO)C(=O)N[C@@H](C)C(=O)N[C@@H](CO)C(=O)N[C@@H](CCCNC(=N)N)C(=O)NCC(=O)N1CCC[C@H]1C(=O)O [Peptide 1, (^99mTc)Tc-HYNIC-(Ser)3-J18 with tricine, metal not drawn] (HELM PEPTIDE1{[NNc1ccc(C(=O)[*:2])cn1].S.S.S.R.S.L.W.S.D.F.Y.A.S.A.S.R.G.P}$$$$V2.0; C-terminus assumed)","cellular affinity, in words",[1]; 40 nM radiolabeled peptide,strongest cellular affinity for the SK-MES-1 cell line
same,"receptor binding affinity (as CPM/Cells value), tricine vs tricine/EDDA as coligand","[1]; higher than tricine/EDDA as coligand, 40 nM",2.5 fold
same,reduction of binding by pre-saturation with unlabeled J18 peptide,"[2]; 500-fold unlabeled peptide 20 min at 37 °C, then radiolabeled peptide 2 hr at 37 °C, listed as 99mTc-peptide 1",~11.5 fold
same,specific binding,"[2]; abstract, listed as 99mTc-peptide 1",11.5 fold
same,"specific binding to SK-MES-1, in words",[2]; listed as 99mTc-J18 peptide with tricine co-ligand,higher specific binding to SK-MES-1 in comparison with tricine/EDDA coligand
same,"specific binding to SK-MES-1, in words",[2]; listed as 99mTc-peptide 1,high specific binding; also recorded: high specificity
same,Bmax,"[3]; Figure 4, saturation binding, 2 hr at 37 °C, listed as 99mTc-(tricine)-HYNIC-(Ser)3-J18",(2.2±0.2)·10^4 binding sites/cell
same,"binding affinity for SK-MES-1, in words",[3]; listed as 99mTc-peptide 1,high binding affinity; also recorded: good receptor-binding affinity
same,Kd,"[3]; saturation binding, 0.1-50 nM, 2 hr at 37 °C, blocking with 500-fold excess non-labeled peptide, three dishes per concentration, Prism 5 nonlinear regression, listed as 99mTc-HYNIC-(Ser)3-J18 (Tricine)",3.1 ± 0.3 nM
same,Bmax,"[3]; saturation binding, 0.1-50 nM, 2 hr at 37 °C, three dishes per concentration, Prism 5 nonlinear regression, listed as 99mTc-HYNIC-(Ser)3-J18 (Tricine)",(2.2± 0.2)×10 ^4 binding sites/cell
same,Intestine uptake (with contents),[4]; 4 hr,5.85±2.14 percentage of injected dose per whole sample
same,Intestine uptake (with contents),[4]; 24 hr,1.11±0.38 percentage of injected dose per whole sample
same,tissue uptake at 4 h,"[4]; female, NMRI, mouse, spleen, iv, 1 ug, total radioactivity, 4 hr",2.24 ± 1.81 %ID/g
same,Kd,[5],4.1 ± 1.3 nM
